Test results reported in patent publication US20110207694A1, “MAMMALIAN HYPOTHALAMIC NUTRIENT MODULATION OF GLUCOSE METABOLISM” (priority 2005, published 2011).

Legend:
Assay type in all cases: in vivo, rat
[1] = test system: Stearoyl-CoA Desaturase 1 (SCD1); test: Liver SCD1 activity, SCD1 mRNA and LCFA-CoA measurements
Procedure: Treatment with SCD1 ASO. Five and two days before the lipoprotein secretion studies, rats received a single intra-peritoneal injection of either SCD1 or scrambled (SCR) ASO (100 mg/kg of body weight). […] In a separate set of studies, rats received intra-portal injection of either SCD1 or SCR ASO (40 mg/kg of body weight) (Gutierrez-Juarez et al., 2006) three days before the lipoprotein secretion studies.
Liver LCFA-CoA measurements. The liver was sampled and the LCFA-CoAs were extracted from the liver and measured by high-performance liquid chromatography (HPLC) as previously described (Lam et al., 2005c).
Stearoyl-CoA Desaturase 1 (SCD1) activity. CD1 activity assays were performed essentially as described (Cohen et al., 2002) using 1-[^14C]-stearoyl-CoA as a substrate. At the end of the reaction incubation long-chain acyl CoAs (LC Acyl-CoAs) were extracted and fractionated by reverse-phase HPLC as previously reported (Lam et al., 2005c). Chromatographically resolved stearoyl CoA (C18:0) and oleyl-CoA (C18:1) peaks were collected and counted in a β-scintillation counter. Protein was assayed by the bicinchoninic acid (BCA) method using a commercially available kit (Pierce Biotechnology, Rockford, Ill.) according to the manufacturer's instructions.
Gene expression. Stearoyl-CoA Desaturasel (SCD1) mRNA was measured by quantitative real-time PCR. Briefly, total RNA was extracted from either liver or fat tissue using the Trizol reagent (Invitrogen, Carlsbad, Calif.) according to the manufacturer instructions. cDNA was then synthesized from 2 μg of total RNA using the Superscript® III First-Strand kit TM? (Invitrogen, Carlsbad, Calif.). Samples of RNA in which the reverse transcriptase was omitted (no RT controls) were also included. The cDNA and no RT controls were diluted 1:20 with PCR grade water and 2 μl from each sample was used for PCR in a total volume of 20 μl. The FastStart DNA Master SYBR Green I kit (Roche Applied Science, Indianapolis, Ind.) and a LightCycler® 2 instrument (Roche Applied Science, Indianapolis, Ind.) were used in all experiments. Either 18S mRNA expression was routinely measured for normalization purposes. The primer sequences used were as follows: 5′-[…]-3′ and 5′-[…]-3′ for Scd1; and 5′-[…]-3′ and 5′-[…]-3′ for ribosomal 18S. The mRNA copy number was calculated from standard curves obtained using cloned target templates (plasmid DNA) of known copy number for each gene of interest.

[2] = test system: phospho-ACC, ACC, FAS, MTP and ApoB; test: Western blot of liver proteins after ICV glucose
Procedure: Western blot analyses. Liver tissue (50-100 mg) was homogenized in a detergent-based lysis buffer (M-PER, Pierce) supplemented with protease and phosphatase inhibitors. The extracts were incubated on ice for 20 min and then centrifuged at 15,000×g to remove tissue debris; the supernatants were saved and frozen at −80 C until analysis. Fifty μg of protein were heat-denatured in SDS-PAGE sample buffer and resolved on denaturing (SDS) 10% polyacrylamide gels (SDS-PAGE). Fractionated proteins were electrophoretically transferred to nitrocellulose membranes by standard procedures. Membranes were immunoblotted with the appropriate primary antibodies and immune complexes were detected by enhanced chemiluminescence (ECL) (Western Lightning, Perkin Elmer Life Sciences) using horseradish peroxidase conjugated secondary antibodies. Bands were imaged on X-ray film and digitized for quantification using ImageQuant software (Molecular Dynamics). β-tubulin was used for loading normalization. Antibodies. Rabbit antibodies to acetyl Co-A carboxylase and phospho-acetyl Co-A carboxylase (Ser79) were from Cell Signaling Technology (Beverly, Mass.); fatty acid synthetase (FAS) and microsomal triglyceride transfer protein (MTP) antibodies were from BD Biosciences Pharmingen (San Jose, Calif.); cholesterol hydroxylase 7α (CYP7A1) and ApoB-100 antibodies were from Santa Cruz Biotechnology (Santa Cruz, Calif.); mouse monoclonal β-tubulin antibodies were obtained from Covance Research Products (Berkeley, Calif.).

[3] = test system: mediobasal hypothalamus; test: Intrahypothalamic (IH) infusion of glucose or DCA with pancreatic basal insulin clamp; details: IH administration
Text: FIG. 3 is a diagram of experimental protocols (Panel (a)) and graphs of results of those experiments utilizing intrahypothalamic (IH) infusions of glucose.
FIG. 4 is a schematic and graphs of experimental results showing the effect of dichloroacetate (DCA), an inhibitor of pyruvate dehydrogenase kinase, having the effect of activating pyruvate dehydrogenase (PDH). The schematic of Panel (a) illustrates the PDH activation effect of DCA in the context of glucose metabolism, the TCA cycle, and nervous system cells.
We have localized the effect of glucose on liver glucose production to the mediobasal hypothalamus. This was accomplished using bilateral intraparenchymal (rather than ICY) delivery of both glucose and the KATP blocker GLI.

[4] = test system: conscious rats; test: ICV glucose or lactate infusion with pancreatic basal insulin clamp: plasma glucose and liver glucose production
Text: We hypothesize that the hypothalamic sensing of glucose-derived pyruvate is a novel regulator of endogenous glucose production (GP). […] We propose that an increase in neuronal pyruvate levels is a hypothalamic signal of nutrient availability.
Long chain fatty acids in the brain decrease glucose production (GP) by the liver via activation of hypothalamus ATP-sensitive (KATP) channels. Here we tested whether (A) direct administration of glucose in the third cerebral ventricle can alter glucose production by the liver, and (B) whether this effect requires its metabolism in the TCA cycle.

[5] = test system: rats; test: Food intake after central (ICV) glucose or lactate; details: central administration
[6] = central administration of glucose

For O=C[C@H](O)[C@@H](O)[C@H](O)[C@H](O)CO [glucose, D-glucose], the “decrease in hepatic expression and activity of SCD1” value ([1]; ICV glucose) was ~70%, the “hepatic desaturation index (oleyl-CoA over stearoyl-CoA)” value ([1]; ICV glucose) was “reduction in the hepatic desaturation index” and the “hepatic oleyl-CoA levels” value ([1]; ICV glucose) was “decreased the levels of oleyl-CoA”. For the same compound, the “hepatic stearoyl-CoA levels” value ([1]; ICV glucose) was “increasing those of stearoyl-CoA”, the “hepatic oleyl-CoA levels, desaturation index and SCD1 activity” value ([1]; after 1 h (60 min) of ICV glucose infusion) was “Significant decreases in hepatic oleyl-CoA levels, desaturation index, and SCD1 activity” and the “hepatic content of lipogenic enzymes acetyl-CoA carboxylase and fatty acid synthase” value ([2]; ICV glucose) was “failed to alter the hepatic content of these lipogenic enzymes”. For the same compound, the “expression of MTP in the liver” value [2, 6] was “not affected”, the “hepatic ApoB48 levels” value [2, 6] was “not decreased” and the circulating glucose levels [3] was “lowered circulating glucose levels”. The glucose production ([3]; clamp) was “suppressed liver glucose production”, the glucose utilization ([3]; clamp) was “unchanged” and the “exogenous glucose infusion rate to maintain euglycemia” value ([3]; pancreatic basal insulin clamps) was “increased exogenous glucose infusion rate”. The circulating glucose levels ([4]; central (ICV) administration) was “lowered circulating glucose levels”, the gluconeogenesis and glycogenolysis ([4]; central administration) was “inhibited gluconeogenesis and glycogenolysis” and the “liver glucose production, G6Pase flux and mRNA” value ([4]; central administration) was “reduced liver glucose production, G6Pase flux and mRNA”. The plasma glucose concentrations ([4]; four hour ICV infusion 5 μl/h (glucose 2 mM, lactate 5 mM), control 150±4) was 133 ± 5 mg/dL, the “exogenous glucose infusion rate required to maintain euglycemia” value ([4]; pancreatic basal insulin clamps, central administration) was “increased exogenous glucose infusion rate” and the “GP (glucose production)” value ([4]; pancreatic clamps, plasma glucose and insulin at basal, ICV infusion, control 10.4±0.1 (glucose), 11.7±0.6 (lactate)) was 7.4 ± 0.3 mg/kg/min. For the same compound, the food intake overnight [5] was “inhibits food intake overnight”.
